Source: US12139520B2 (priority 2020, dated 2024)
Numbered stars: 1 amine (or outer) side, 2 acyl side, 3 side chain; on linkers, the order of the positions; unused ones are H or OH. Bridge positions count the residues as written; N and C are the ends. Square brackets hold non-standard residues; d marks the D form. Peptide text beside a SMILES is read from it. * marks the point of attachment. C20 diacid = O=C(O)CCCCCCCCCCCCCCCCCCC(=O)*; γGlu = O=C(O)[C@H](CCC(=O)[*:2])N[*:1]; Hyp = O=C(O)[C@@H]1C[C@@H](O)CN1

How the values were obtained:
hAMY3 receptor = target: T1, hAMY3 receptor (Homo sapiens, UniProt O60896+P30988); test: cAMP assay for in vitro receptor activation, hAMY3-R; type: cell-based; conditions: cAMP assay, hAMY3 receptor; read-out: hAMY3R EC50
T1 sequence (P30988 25-474): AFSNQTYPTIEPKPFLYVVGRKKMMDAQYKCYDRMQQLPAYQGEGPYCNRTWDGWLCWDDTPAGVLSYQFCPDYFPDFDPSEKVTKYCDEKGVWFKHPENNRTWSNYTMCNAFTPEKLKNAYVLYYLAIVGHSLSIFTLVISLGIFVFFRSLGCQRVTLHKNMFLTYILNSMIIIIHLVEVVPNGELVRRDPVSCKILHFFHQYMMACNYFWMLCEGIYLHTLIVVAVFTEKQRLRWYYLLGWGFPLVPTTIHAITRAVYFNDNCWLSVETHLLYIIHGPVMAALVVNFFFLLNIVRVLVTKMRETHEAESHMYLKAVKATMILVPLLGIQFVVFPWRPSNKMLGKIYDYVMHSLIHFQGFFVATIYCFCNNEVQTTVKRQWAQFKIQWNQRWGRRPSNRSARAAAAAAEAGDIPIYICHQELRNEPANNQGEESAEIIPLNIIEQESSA
T1 sequence (O60896 24-148 partner): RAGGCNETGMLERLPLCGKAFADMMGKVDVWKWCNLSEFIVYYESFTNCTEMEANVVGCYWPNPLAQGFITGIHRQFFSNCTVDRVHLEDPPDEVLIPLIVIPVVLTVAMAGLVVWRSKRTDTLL
How it was run: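 Monoclonal cell line stably overexpressing human AMY3 receptor, 2000 cells/well in DPBS with 0.05% casein and 0.5 mM IBMX. Stimulated 30 min at room temperature with graded compound doses, human amylin as positive control. cAMP accumulation read by TR-FRET after one hour.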

hAM1 receptor = hAM1 receptor (Homo sapiens, UniProt O60895+Q16602); test: cAMP assay for in vitro receptor activation, hAM1-R; type: cell-based; conditions: cAMP assay, hAM1 receptor; read-out: hAM1R EC50
Chain of hAM1 receptor (Q16602 23-461): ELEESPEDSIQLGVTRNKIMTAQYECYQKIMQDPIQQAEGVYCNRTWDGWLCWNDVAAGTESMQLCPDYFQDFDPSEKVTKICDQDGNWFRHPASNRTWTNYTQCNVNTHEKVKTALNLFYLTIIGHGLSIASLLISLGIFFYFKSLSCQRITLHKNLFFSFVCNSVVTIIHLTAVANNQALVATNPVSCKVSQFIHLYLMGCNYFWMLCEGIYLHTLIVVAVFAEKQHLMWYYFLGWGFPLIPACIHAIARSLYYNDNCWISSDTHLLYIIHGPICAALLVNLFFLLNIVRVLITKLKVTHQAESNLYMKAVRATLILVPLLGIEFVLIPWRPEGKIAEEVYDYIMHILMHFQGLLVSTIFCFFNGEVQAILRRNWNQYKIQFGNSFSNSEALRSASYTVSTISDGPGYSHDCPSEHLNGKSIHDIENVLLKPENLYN
Chain of hAM1 receptor (O60895 43-175 partner): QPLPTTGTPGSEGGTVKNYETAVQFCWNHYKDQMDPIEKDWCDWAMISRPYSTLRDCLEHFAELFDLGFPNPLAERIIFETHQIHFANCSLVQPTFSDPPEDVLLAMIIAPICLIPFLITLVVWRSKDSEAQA
How it was run: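 Read-out is intracellular cAMP as a measure of receptor activation. Cells stably overexpressing hAM1 were subcloned to a monoclonal line, then thawed and seeded at 8000 cells/well in DPBS with 0.05% casein and the phosphodiesterase inhibitor IBMX at 0.5 mM.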

| EC50 (hAMY3 receptor) [nM] | EC50 (hAM1 receptor) [nM] | SMILES |
| --- | --- | --- |
| 0.016 | > 5000 | CC[C@H](C)[C@H](NC(=O)[C@H](CCC(N)=O)NC(=O)[C@H](CCC(=O)O)NC(=O)[C@H](C)NC(=O)[C@H](CC(C)C)NC(=O)[C@H](CCCNC(=N)N)NC(=O)[C@H](CCC(N)=O)NC(=O)[C@@H](NC(=O)[C@@H](NC(=O)[C@@H]1CSSC[C@H](NC(=O)[C@H](CCCCN)NC(=O)CC[C@H](NC(=O)CCCCCCCCCCCCCCCCCCC(=O)O)C(=O)O)C(=O)N[C@@H](CC(N)=O)C(=O)N[C@@H]([C@@H](C)O)C(=O)N[C@@H](C)C(=O)N[C@@H]([C@@H](C)O)C(=O)N1)[C@@H](C)O)C(C)C)C(=O)N[C@@H](Cc1ccc(O)cc1)C(=O)N[C@@H](CCC(N)=O)C(=O)N[C@@H](Cc1ccccc1)C(=O)N[C@H](C(=O)N[C@@H](CC(=O)O)C(=O)N[C@@H](CCCCN)C(=O)N[C@@H](CC(=O)O)C(=O)N[C@@H](CCCCN)C(=O)N[C@@H](CC(=O)O)C(=O)N[C@@H](CC(N)=O)C(=O)N[C@H](C(=O)N[C@@H](C)C(=O)N1CCC[C@H]1C(=O)N1CCC[C@H]1C(=O)N[C@H](C(=O)N[C@@H](CC(N)=O)C(=O)N[C@H](C(=O)NCC(=O)N[C@@H](CO)C(=O)N[C@@H](CC(N)=O)C(=O)N[C@H](C(=O)N1C[C@H](O)C[C@H]1C(N)=O)[C@@H](C)O)C(C)C)[C@@H](C)O)C(C)C)[C@@H](C)O [compound 96] ({C20 diacid-γGlu}-KCNTATCTVQRLAEQIYQFTDKDKDNVAPPTNVGSNT[Hyp]-NH2; disulfide 2-7) |
| 0.009 | > 5000 | CC[C@H](C)[C@H](NC(=O)[C@H](CCC(N)=O)NC(=O)[C@H](Cc1c[nH]cn1)NC(=O)[C@H](C)NC(=O)[C@H](CC(C)C)NC(=O)[C@H](CCCNC(=N)N)NC(=O)[C@H](CCC(N)=O)NC(=O)[C@@H](NC(=O)[C@@H](NC(=O)[C@@H]1CSSC[C@H](NC(=O)[C@H](CCCCN)NC(=O)CC[C@H](NC(=O)CCCCCCCCCCCCCCCCCCC(=O)O)C(=O)O)C(=O)N[C@@H](CC(N)=O)C(=O)N[C@@H]([C@@H](C)O)C(=O)N[C@@H](C)C(=O)N[C@@H]([C@@H](C)O)C(=O)N1)[C@@H](C)O)C(C)C)C(=O)N[C@@H](CCC(N)=O)C(=O)N[C@@H](CCC(N)=O)C(=O)N[C@@H](Cc1ccccc1)C(=O)N[C@H](C(=O)N[C@@H](CC(=O)O)C(=O)N[C@@H](CCCCN)C(=O)N[C@@H](CC(=O)O)C(=O)N[C@@H](CCCCN)C(=O)N[C@@H](CC(=O)O)C(=O)N[C@@H](CC(N)=O)C(=O)N[C@H](C(=O)N[C@@H](C)C(=O)N1CCC[C@H]1C(=O)N1CCC[C@H]1C(=O)N[C@H](C(=O)N[C@@H](CC(N)=O)C(=O)N[C@H](C(=O)NCC(=O)N[C@@H](CO)C(=O)N[C@@H](CC(N)=O)C(=O)NCC(=O)N1C[C@H](O)C[C@H]1C(N)=O)C(C)C)[C@@H](C)O)C(C)C)[C@@H](C)O [compound 35] ({C20 diacid-γGlu}-KCNTATCTVQRLAHQIQQFTDKDKDNVAPPTNVGSNG[Hyp]-NH2; disulfide 2-7) |
